Experiments:
Daphna magna = experiment: 48-hour acute toxicity to Daphnia; format: in vivo
From the text: The study procedures and test methods are based on the recommendations of the following guidelines:
Data from the aquatic toxicity tests of the isolated and purified C12 mono and disulfonates from Example 11 is shown in Table 3.

Desmondesmus subspicatus = experiment: Fresh water algal growth inhibition test (OECD 201); format: cell-based; conditions: growth rate, 0-3; read-out: Fresh Water algal growth inhibition test with Desmondesmus subspicatus ErC50/0-3
From the text: The study procedures and test methods are based on the recommendations of the following guidelines: Organization for Economic Cooperation and Development (OECD): OECD Guidelines for the Testing of Chemicals, “Freshwater Alga and Cyanobacteria, Growth Inhibition Test”, Procedure 201, adopted 23 Mar. 2006; European Economic Community (EEC): Commission directive 92/69/EEC of 31 Jul. 1992, Methods for the determination of ecotoxicity, C.3., “Algal Inhibition Test”. Data from the aquatic toxicity tests of the isolated and purified C12 mono and disulfonates from Example 11 is shown in Table 3.

[1] = Solubility evaluation, visual assessment in caustic, calcium chloride and cold water; format: physicochemical
From the text: The final concentrations are: 0.1 wt % for surfactant, 10 wt % for NaOH.
The final concentrations are: 0.1 wt % for surfactant, 1 M for CaCl2.
, C12, and C14 sulfonate compositions of the invention, as produced in Examples 5, 7, and 8, in 10% sodium hydroxide, 1M calcium chloride, […] 2A1 are shown in Table 2 below, and indicate that these new materials have desirable characteristics.

Visual assessment, 0.1 wt % surfactant in 1M CaCl2 ([1]; 0.1 wt % surfactant, 1 M CaCl2)	Visual assessment, 0.1 wt % surfactant in 10% NaOH ([1]; 0.1 wt % surfactant, 10 wt % NaOH)	Visual assessment, 1 wt % surfactant at 7° C. ([1]; 1 wt % surfactant, 7° C.)	Compound	EC50 (Daphna magna)	EC50 (Desmondesmus subspicatus)
–	–	–	CCCCCCCCCCCCOC(CS(=O)(=O)[O-])CS(=O)(=O)[O-].[Na+].[Na+] [sodium 2-(dodecanyloxy)propane-1,3-disulfonate]	> 100 µg/mL	> 100 µg/mL
cloudy	cloudy	cloudy	linear alkylbenzene sulfonate [LAS]	–	–

Source: US8304377B2, “Sulfonate surfactants and methods of preparation and use” (Dow Global Technologies LLC, priority 2009, dated 2012)
